Pest or weed control data for 15 compounds are collected here from patent US8507514B2, “Hydrazide compound and use of the same in pest control” (Sumitomo Chemical Company, Limited, priority 2009, dated 2013).

Each structure is given as a SMILES string.

Assay [1] has as its system Spodoptela litura. The assay can be described thus: Test Example 4: Spodoptela litura larvae on treated artificial diet. It counts as in vivo. As to conditions: 144 h; 500 ppm test solution, 2 mL on artificial diet Insecta LF; 5 fourth instar larvae; after 6 days; read-out: pest death rate. The method, then: (§1) Formulations of some compounds of the present invention were obtained according to Formulation Example 5. The formulation was diluted with water to prepare a test solution having 500 ppm of the active ingredient.
A filter paper having a diameter of 5.5 cm was spread on the bottom of a polyethylene cup having a diameter of 5.5 cm. Insecta LF (manufactured by NOSAN CORPORATION), an artificial diet, was sliced to 6 mm in thickness, cut into half, and then placed on the filter paper. Then, 2 mL of the test solution was poured into the polyethylene cup. After the test solution was air-dried, 5 fourth instar larvae of Spodoptela litura were released into the polyethylene cup and the cup was sealed with a lid. After 6 days, the number of surviving or dead Spodoptela litura was counted and a pest death rate was calculated according to the following equation. Pest death rate(%)=(Number of dead larvae/Number of tested larvae)×100

The subject of assay [2] is Musca domestica. The assay can be described thus: Test Example 1: Musca domestica filter paper/sucrose bait test. It is filed as in vivo. The following applies: 500 ppm test solution, 0.7 ml on filter paper with sucrose bait, 10 female imagoes, after 24 hours, read-out: pest death rate. The protocol: as §1
A filter paper having a diameter of 5.5 cm was spread on the bottom of a polyethylene cup having a diameter of 5.5 cm and 0.7 ml of the test solution was added dropwise onto the filter paper. As a bait, 30 mg of sucrose was uniformly placed on the filter paper. Into the polyethylene cup, 10 female imagoes of Musca domestica were released and the cup was sealed with a lid. After 24 hours, the number of surviving or dead Musca domestica was counted and a pest death rate was calculated according to the following equation. Pest death rate(%)=(Number of dead imagoes/Number of tested imagoes)×100

On to `CC(=O)NN(C(=O)OC(C)(C)C)c1cccc(C2=NOC(c3cc(Cl)cc(Cl)c3)(C(F)(F)F)C2)c1` (stereo not shown) [(1)], for which the pest or weed control at 500 ppm is ≥ 80% in assay [1] and 100% in assay [2].

For the compound `CC(=O)NN(C)c1cccc(C2=NOC(c3cc(Cl)cc(Cl)c3)(C(F)(F)F)C2)c1` (stereo not shown) [(5)], the pest or weed control at 500 ppm in assay [1] is ≥ 80%.

For `O=C(CC(F)(F)F)NNc1cccc(C2=NOC(c3cc(Cl)cc(Cl)c3)(C(F)(F)F)C2)c1` (stereo not shown) [(7)], the pest or weed control at 500 ppm in assay [2] came out at 100%.

Consider `Cc1ccc(C2=NOC(c3cc(Cl)cc(Cl)c3)(C(F)(F)F)C2)cc1NNC(=O)CC(F)(F)F` (stereo not shown) [(8)], for which the pest or weed control at 500 ppm in assay [2] came to 100%.

For `O=C(CC(F)(F)F)NNc1cc(C2=NOC(c3cc(Cl)cc(Cl)c3)(C(F)(F)F)C2)ccc1F` (stereo not shown) [(10)], the pest or weed control at 500 ppm in assay [2] was 100%.

On to `O=C(CC(F)(F)F)NNc1cc(C2=NOC(c3cc(Cl)cc(Cl)c3)(C(F)(F)F)C2)ccc1Cl` (stereo not shown) [(11)], for which, in assay [2], the pest or weed control at 500 ppm was 100%.

As for `CC(C)CC(=O)NNc1cc(C2=NOC(c3cc(Cl)cc(Cl)c3)(C(F)(F)F)C2)ccc1Cl` (stereo not shown) [(15)], in assay [2], the pest or weed control at 500 ppm stood at 100%.

Regarding `CC(C)(C)C(=O)NNc1cc(C2=NOC(c3cc(Cl)cc(Cl)c3)(C(F)(F)F)C2)ccc1Cl` (stereo not shown) [(23)], the pest or weed control at 500 ppm in assay [2] came to 100%.

For the compound `O=C(Cc1ccccc1)NNc1cc(C2=NOC(c3cc(Cl)cc(Cl)c3)(C(F)(F)F)C2)ccc1Cl` (stereo not shown) [(26)], in assay [1], the pest or weed control at 500 ppm is ≥ 80%.

Turning to `O=C(CCCBr)NNc1cc(C2=NOC(c3cc(Cl)cc(Cl)c3)(C(F)(F)F)C2)ccc1Cl` (stereo not shown) [(34)], the pest or weed control at 500 ppm in assay [1] is ≥ 80%.

Take `O=C(CCCC(F)(F)F)NNc1cc(C2=NOC(c3cc(Cl)cc(Cl)c3)(C(F)(F)F)C2)ccc1Cl` (stereo not shown) [(36)]: the figures for the pest or weed control at 500 ppm in assay [1] and in assay [2] were ≥ 80% and 100%, respectively.

In the case of `COCC(=O)NNc1cc(C2=NOC(c3cc(Cl)cc(Cl)c3)(C(F)(F)F)C2)ccc1Cl` (stereo not shown) [(38)], the pest or weed control at 500 ppm in assay [1] was ≥ 80%; in assay [2], 100%.

For `CC(C)(CCl)C(=O)NNc1cc(C2=NOC(c3cc(Cl)cc(Cl)c3)(C(F)(F)F)C2)ccc1Cl` (stereo not shown) [(40)], the values for the pest or weed control at 500 ppm in assay [1] and in assay [2] were ≥ 80% and 100%, respectively.

As for `CC(=O)N(NC(=O)CCC(F)(F)F)c1cc(C2=NOC(c3cc(Cl)cc(Cl)c3)(C(F)(F)F)C2)ccc1Cl` (stereo not shown) [(53)], the pest or weed control at 500 ppm in assay [1] is ≥ 80%.

With `COCC(=O)NN(C(=O)c1ccccc1)c1cc(C2=NOC(c3cc(Cl)cc(Cl)c3)(C(F)(F)F)C2)ccc1Cl` (stereo not shown) [(57)], in assay [1], the pest or weed control at 500 ppm was ≥ 80%.
